Source: patent US20140378395A1, “Peptides for the Treatment of Hearing” (13Therapeutics, Inc., priority 2011, published 2014)

Test system: TNF-α production in RAW264.7 cells
Assay type: cell-based, murine
Conditions: 30 μg/mL, 15 minutes pre-incubation, 4 hours

## EEYFMYRGLLGLRIKYG [Peptide P7]
  NCE-stimulated TNF-α production compared to control peptide: significantly inhibited
